Read-outs that look alike come from different tables or passages of the source. Starred links: 1 amine or outer side, 2 acyl side, 3 side chain; linkers in the order of their positions; H or OH if unused. Residues, ends and D or L forms follow the SMILES beside them. Groups on a side chain read outwards from the residue. *: point of attachment. C20 diacid = O=C(O)CCCCCCCCCCCCCCCCCCC(=O)*; γGlu = O=C(O)[C@H](CCC(=O)[*:2])N[*:1]
Assays:
human Y2 receptor = target: T1, human Y2 receptor (Homo sapiens, UniProt P49146); test: NPY receptor functional assay (cAMP, HEK-CNG cells, ACTOne membrane potential dye); format: cell-based; settings: NPY2R pEC50, HEK-CNG cells; standard PYY(3-36); species (human or rat) not given
T1 sequence (P49146 1-381): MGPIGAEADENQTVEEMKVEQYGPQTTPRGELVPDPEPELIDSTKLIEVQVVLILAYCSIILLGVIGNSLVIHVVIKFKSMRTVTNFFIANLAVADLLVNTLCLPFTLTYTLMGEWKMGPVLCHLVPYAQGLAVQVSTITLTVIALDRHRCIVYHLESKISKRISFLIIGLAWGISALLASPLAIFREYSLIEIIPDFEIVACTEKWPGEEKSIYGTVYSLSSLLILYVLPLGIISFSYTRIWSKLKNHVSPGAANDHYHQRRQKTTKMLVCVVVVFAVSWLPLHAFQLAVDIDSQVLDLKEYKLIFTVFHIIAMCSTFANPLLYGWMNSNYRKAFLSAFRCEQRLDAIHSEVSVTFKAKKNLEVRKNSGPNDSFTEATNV
In short: (§1)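 HEK-CNG cells stably expressing each human receptor; peptides added in triplicate for 50 minutes at room temperature, with agonism read as decreased isoproterenol-induced membrane potential dye signal (final/initial read).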

human Y5 receptor = target: T2, human Y5 receptor (Homo sapiens, UniProt Q15761); test: as above; format: cell-based; settings: NPY5R pEC50, HEK-CNG cells; standard NPY; species (human or rat) not given
T2 sequence (Q15761 1-445): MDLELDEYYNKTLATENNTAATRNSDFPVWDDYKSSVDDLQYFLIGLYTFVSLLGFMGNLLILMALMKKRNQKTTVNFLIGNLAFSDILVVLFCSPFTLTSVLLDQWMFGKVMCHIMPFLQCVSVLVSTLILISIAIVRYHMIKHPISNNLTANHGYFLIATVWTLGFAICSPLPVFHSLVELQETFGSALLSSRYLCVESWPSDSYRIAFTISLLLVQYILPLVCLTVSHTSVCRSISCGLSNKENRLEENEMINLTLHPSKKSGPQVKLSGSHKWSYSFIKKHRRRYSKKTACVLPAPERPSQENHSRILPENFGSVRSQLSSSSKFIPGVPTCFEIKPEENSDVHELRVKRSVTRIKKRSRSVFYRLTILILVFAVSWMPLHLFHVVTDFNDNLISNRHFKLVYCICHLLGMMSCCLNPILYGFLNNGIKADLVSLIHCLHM
In short: as §1

[1] = In vitro metabolic stability in kidney brush border membranes (kBBM); format: in vitro ADME; settings: 1 mcM peptide, 37° C.
Method: In vitro incubations in kidney brush border membrane (kBBM) preparations were used to characterize the ability of peptides to resist degradation by proteases and peptidases in the systemic circulation. kBBM were selected because they contain a high concentration of a diverse set of proteases and peptidases, many of which are present throughout the body.
Brush border membranes from rat and human kidney tissue were prepared via centrifugation and stored at −70° C. Thawed stocks of rat or human kBBM were diluted to the appropriate concentration in 25 mM HEPES buffer (pH 7.4) containing 1% casein and aliquoted into a 96-well plate. The kBBM solutions were pre-warmed for 10 minutes at 37° C. […] The final concentration of kBBM in each incubation was 50 mcg protein/mL. Reactions were maintained at 37° C. in a shaking water bath. […] Quenched samples were centrifuged at 2178×g for 10 min and then a portion of the supernatants were transferred to a clean 96-well plate and diluted 1:1 with water. Samples were analyzed by UPLC-MS/MS.

[2] = In vitro stability in subcutaneous (SC) tissue homogenates; format: in vitro ADME; settings: subcutaneous tissue homogenate, pH 7.4; human SC tissue homogenate 1.0 mg protein/mL, 10 mcM peptide, 37° C.; read-out: (H)SC tissue stability t½ (converted)
Method: In vitro incubations in subcutaneous (SC) tissue homogenates were used to characterize the ability of peptides to resist pre-systemic degradation by proteases and peptidases after SC administration. […] Peptides with high SC bioavailability are stable in this assay, while peptides with low SC bioavailability are unstable in this assay.
Human SC tissue was homogenized in cold 25 mM HEPES buffer (pH 7.4, 10-fold volume based on sample weight), and then filtered through a double layer of cheesecloth. The filtrates were aliquoted, flash frozen on a methanol/dry ice bath and stored at −80° C. The protein concentration of each pooled batch was determined using the BCA protein assay. Thawed stocks of human SC tissue homogenates were diluted to 1.0 mg protein/mL in 25 mM HEPES buffer (pH 7.4) and aliquoted into a 96-well plate. The diluted SC homogenates were pre-warmed for 10 minutes at 37° C. […] Reactions were maintained at 37° C. in a shaking water bath. […] Quenched samples were centrifuged at 2178×g for 10 min and then a portion of the supernatants were transferred to a clean 96-well plate and diluted 1:10 with water. Samples were analyzed by UPLC-MS/MS.

[3] = pH 7.4, human kBBM 50 mcg protein/mL, read-out: hkBBM t½ (converted)

| SMILES | EC50 (human Y2 receptor) [nM] | EC50 (human Y5 receptor) [nM] | half-life at 1 mcM [1, 3] [h] | half-life at 1 mcM ([1]; pH 7.4, rat kBBM 50 mcg protein/mL, read-out: rkBBM t½) [h] | half-life at 10 mcM [2] [h] |
| --- | --- | --- | --- | --- | --- |
| CC(C)C[C@H](NC(=O)[C@H](CC(=O)O)NC(=O)[C@H](CCCCNC(=O)CC[C@H](NC(=O)COCCOCCNC(=O)COCCOCCNC(=O)CC[C@H](NC(=O)CCCCCCCCCCCCCCCCCCC(=O)O)C(=O)O)C(=O)O)NC(=O)[C@H](Cc1ccc(O)cc1)NC(=O)[C@H](Cc1ccc(O)cc1)NC(=O)[C@H](CCCNC(=N)N)NC(=O)[C@H](CC(N)=O)NC(=O)[C@H](Cc1c[nH]c2ccccc12)NC(=O)[C@H](CCC(=O)O)NC(=O)[C@H](CCC(=O)O)NC(=O)[C@@H]1CCCN1C(=O)[C@H](CO)NC(=O)[C@H](C)NC(=O)[C@H](CC(=O)O)NC(=O)[C@H](CCCCN)NC(=O)CNC(=O)[C@@H]1CCCN1C(=O)[C@H](C)NC(=O)[C@H](CCC(=O)O)NC(=O)[C@@H]1CCCN1C(=O)[C@H](CCCCN)NC(=O)[C@@H]1CCCN1)C(=O)N[C@@H](CCCNC(=N)N)C(=O)N[C@@H](Cc1c[nH]cn1)C(=O)N[C@@H](Cc1ccc(O)cc1)C(=O)N[C@@H](CC(C)C)C(=O)N[C@@H](CC(N)=O)C(=O)N[C@@H](Cc1c[nH]c2ccccc12)C(=O)N[C@@H](CC(C)C)C(=O)N[C@H](C(=O)N[C@@H](CCCNC(=N)N)C(=O)N[C@@H](CCC(N)=O)C(=O)N[C@@H](CCCNC(=N)N)C(=O)N[C@@H](Cc1ccccc1)C(N)=O)[C@@H](C)O [Compound A16] | 0.0631 | 0.794 | > 12 | > 12 | 7.3 |
| CC(C)C[C@H](NC(=O)[C@H](CC(=O)O)NC(=O)[C@H](CCCCN)NC(=O)[C@H](Cc1ccc(O)cc1)NC(=O)[C@H](Cc1ccc(O)cc1)NC(=O)[C@H](CCCNC(=N)N)NC(=O)[C@H](CC(N)=O)NC(=O)[C@H](Cc1c[nH]c2ccccc12)NC(=O)[C@H](CCC(=O)O)NC(=O)[C@H](CCCCN)NC(=O)[C@@H]1CCCN1C(=O)[C@H](CO)NC(=O)[C@H](C)NC(=O)[C@H](CC(=O)O)NC(=O)[C@H](CCCCNC(=O)CC[C@H](NC(=O)CC[C@H](NC(=O)CCCCCCCCCCCCCCCCCCC(=O)O)C(=O)O)C(=O)O)NC(=O)CNC(=O)[C@@H]1CCCN1C(=O)[C@H](CCCCN)NC(=O)[C@H](CCC(=O)O)NC(=O)[C@@H]1CCCN1C(=O)[C@H](CCCCN)NC(=O)[C@@H]1CCCN1)C(=O)N[C@@H](CCCNC(=N)N)C(=O)N[C@@H](Cc1c[nH]cn1)C(=O)N[C@@H](Cc1ccc(O)cc1)C(=O)N[C@@H](CC(C)C)C(=O)N[C@@H](CC(N)=O)C(=O)N[C@@H](Cc1c[nH]c2ccccc12)C(=O)N[C@@H](CC(C)C)C(=O)N[C@H](C(=O)N[C@@H](CCCNC(=N)N)C(=O)N[C@@H](CCC(N)=O)C(=O)N[C@@H](CCCNC(=N)N)C(=O)N[C@@H](Cc1ccccc1)C(N)=O)[C@@H](C)O [Compound A27] (H-PKPEKPGK([γGlu-γGlu-C20 diacid])DASPKEWNRYYKDLRHYLNWLTRQRF-NH2; N-terminus assumed) | 0.02 | 1.26 | 10 | – | 0.2 |
| CC(C)C[C@H](NC(=O)[C@H](CC(=O)O)NC(=O)[C@H](CCCCNC(=O)CC[C@H](NC(=O)CC[C@H](NC(=O)CCCCCCCCCCCCCCCCCCC(=O)O)C(=O)O)C(=O)O)NC(=O)[C@H](Cc1ccc(O)cc1)NC(=O)[C@H](Cc1ccc(O)cc1)NC(=O)[C@H](CCCNC(=N)N)NC(=O)[C@H](CC(N)=O)NC(=O)[C@H](Cc1c[nH]c2ccccc12)NC(=O)[C@H](CCC(=O)O)NC(=O)[C@H](CCCCN)NC(=O)[C@@H]1CCCN1C(=O)[C@H](CO)NC(=O)[C@H](C)NC(=O)[C@H](CC(=O)O)NC(=O)[C@H](CCCCN)NC(=O)CNC(=O)[C@@H]1CCCN1C(=O)[C@H](CCCCN)NC(=O)[C@H](CCC(=O)O)NC(=O)[C@@H]1CCCN1C(=O)[C@H](CCCCN)NC(=O)[C@@H]1CCCN1)C(=O)N[C@@H](CCCNC(=N)N)C(=O)N[C@@H](Cc1c[nH]cn1)C(=O)N[C@@H](Cc1ccc(O)cc1)C(=O)N[C@@H](CC(C)C)C(=O)N[C@@H](CC(N)=O)C(=O)N[C@@H](Cc1c[nH]c2ccccc12)C(=O)N[C@@H](CC(C)C)C(=O)N[C@H](C(=O)N[C@@H](CCCNC(=N)N)C(=O)N[C@@H](CCC(N)=O)C(=O)N[C@@H](CCCNC(=N)N)C(=O)N[C@@H](Cc1ccccc1)C(N)=O)[C@@H](C)O [Compound A28] (H-PKPEKPGKDASPKEWNRYYK([γGlu-γGlu-C20 diacid])DLRHYLNWLTRQRF-NH2; N-terminus assumed) | 0.0316 | 1.58 | 5.2 | – | 0.2 |
| CC(C)C[C@H](NC(=O)[C@H](CC(=O)O)NC(=O)[C@H](CCCCNC(=O)CC[C@H](NC(=O)CC[C@H](NC(=O)CCCCCCCCCCCCCCCCCCC(=O)O)C(=O)O)C(=O)O)NC(=O)[C@H](Cc1ccc(O)cc1)NC(=O)[C@H](Cc1ccc(O)cc1)NC(=O)[C@H](CCCNC(=N)N)NC(=O)[C@H](CC(N)=O)NC(=O)[C@H](Cc1c[nH]c2ccccc12)NC(=O)[C@H](CCC(=O)O)NC(=O)[C@H](CCCCN)NC(=O)[C@@H]1CCCN1C(=O)[C@H](CO)NC(=O)[C@H](C)NC(=O)[C@H](CC(=O)O)NC(=O)[C@H](CCC(=O)O)NC(=O)CNC(=O)[C@@H]1CCCN1C(=O)[C@H](CCCCN)NC(=O)[C@H](CCC(=O)O)NC(=O)[C@@H]1CCCN1C(=O)[C@H](CCCCN)NC(=O)[C@@H]1CCCN1)C(=O)N[C@@H](CCCNC(=N)N)C(=O)N[C@@H](Cc1c[nH]cn1)C(=O)N[C@@H](Cc1ccc(O)cc1)C(=O)N[C@@H](CC(C)C)C(=O)N[C@@H](CC(N)=O)C(=O)N[C@@H](Cc1c[nH]c2ccccc12)C(=O)N[C@@H](CC(C)C)C(=O)N[C@H](C(=O)N[C@@H](CCCNC(=N)N)C(=O)N[C@@H](CCC(N)=O)C(=O)N[C@@H](CCCNC(=N)N)C(=O)N[C@@H](Cc1ccccc1)C(N)=O)[C@@H](C)O [Compound A29] | 0.0126 | 1 | 8.7 | – | 1.1 |
| CC(C)C[C@H](NC(=O)[C@H](CC(=O)O)NC(=O)[C@H](CCCCNC(=O)CC[C@H](NC(=O)CC[C@H](NC(=O)CCCCCCCCCCCCCCCCCCC(=O)O)C(=O)O)C(=O)O)NC(=O)[C@H](Cc1ccc(O)cc1)NC(=O)[C@H](Cc1ccc(O)cc1)NC(=O)[C@H](CCCNC(=N)N)NC(=O)[C@H](CC(=O)O)NC(=O)[C@H](Cc1c[nH]c2ccccc12)NC(=O)[C@H](CCC(=O)O)NC(=O)[C@H](CCCCN)NC(=O)[C@@H]1CCCN1C(=O)[C@H](CO)NC(=O)[C@H](C)NC(=O)[C@H](CC(=O)O)NC(=O)[C@H](CCC(=O)O)NC(=O)CNC(=O)[C@@H]1CCCN1C(=O)[C@H](CCCCN)NC(=O)[C@H](CCC(=O)O)NC(=O)[C@@H]1CCCN1C(=O)[C@H](CCCCN)NC(=O)[C@@H]1CCCN1)C(=O)N[C@@H](CCCNC(=N)N)C(=O)N[C@@H](Cc1c[nH]cn1)C(=O)N[C@@H](Cc1ccc(O)cc1)C(=O)N[C@@H](CC(C)C)C(=O)N[C@@H](CC(N)=O)C(=O)N[C@@H](Cc1c[nH]c2ccccc12)C(=O)N[C@@H](CC(C)C)C(=O)N[C@H](C(=O)N[C@@H](CCCNC(=N)N)C(=O)N[C@@H](CCC(N)=O)C(=O)N[C@@H](CCCNC(=N)N)C(=O)N[C@@H](Cc1ccccc1)C(N)=O)[C@@H](C)O [Compound A34] | 0.0631 | 1.58 | 6.7 | – | 4.9 |

Source: patent US12122816B2, “Long acting peptide tyrosine tyrosine (PYY) analogs and methods of use” (Intarcia Therapeutics, Inc., priority 2020, dated 2024)
